Experiments:
Assay type in all cases: functional, cell-based
[1] = system: HCT-8; assay: Cytotoxicity against human HCT8 cells by MTT assay
[2] = system: BGC-823; assay: Cytotoxicity against human BGC823 cells by MTT assay
[3] = system: Bel-7402; assay: Cytotoxicity against human Bel7402 cells by MTT assay
[4] = system: A549; assay: Cytotoxicity against human A549 cells by MTT assay
[5] = system: MCF7; assay: Cytotoxicity against human MCF7 cells by MTT assay

Measured: IC50

CC(C)[C@@H]1CC[C@@H](C)[C@]2(O)CC[C@@](C)(O)[C@@H](O)[C@@H]12
> 10 µg/mL: all assays above

CC1=CC[C@]2(O)[C@@H]([C@H]1O)[C@H](C(C)C)CC[C@H]2C
> 10 µg/mL: all assays above

CC(C)[C@@H]1CC[C@@H](C)[C@]2(O)CCC(C=O)=C[C@@H]12
> 10 µg/mL: all assays above

C=C1CC[C@]2(O)[C@H]([C@H](C(C)(C)O)CC[C@H]2C)[C@H]1O
> 10 µg/mL: all assays above

C=C1CC[C@]2(O)[C@@H]([C@@H]1O)[C@H](C(C)C)CC[C@H]2C
> 10 µg/mL: all assays above

CC1=CC[C@@]2(O)[C@H](C)CC[C@@H](C(C)C)[C@@H]2C1=O
> 10 µg/mL: all assays above

CC1=CC[C@]2(O)[C@@H]([C@@H]1O)[C@H](C(C)C)CC[C@H]2C
> 10 µg/mL: all assays above

Reference: ChEMBL document CHEMBL1148914, “Cadinane sesquiterpenes from the brown alga Dictyopteris divaricata” (J Nat Prod, 2004)
